Assay results reported in ChEMBL document CHEMBL5500426, “Directly Suppressing MYC Function with Novel Alkynyl-Substituted Phenylpyrazole Derivatives that Induce Protein Degradation and Perturb MYC/MAX Interaction” (J Med Chem, 2024).
The source made the active and inactive calls. No cut-off for these calls is given here.

Tests used:
[1] = system: PC-3; experiment: Antiproliferative activity against human PC-3 cells assessed as inhibition of cell growth incubated for 72 hrs by MTT assay; assay type: functional, cell-based; conditions: PC-3, 72 h
[2] = molecular target: c-Myc/c-Max (Homo sapiens) (UniProt P01106+P61244); experiment: Inhibition of MYC/MAX protein-protein interaction in human PC-3 cells at 10 uM incubated for 1 hr by Co-immunoprecipitation based immunoblotting analysis; assay type: cell-based
[3] = system: MDA-MB-468; experiment: Antiproliferative activity against human MDA-MB-468 cells assessed as inhibition of cell growth incubated for 72 hrs by MTT assay; assay type: functional, cell-based; conditions: MDA-MB-468, 72 h
[4] = system: SK-OV-3; experiment: Antiproliferative activity against human SK-OV-3 cells assessed as inhibition of cell growth incubated for 72 hrs by MTT assay; assay type: functional, cell-based; conditions: SK-OV-3, 72 h
[5] = system: MV4-11; experiment: Antiproliferative activity against human MV4-11 cells assessed as inhibition of cell growth incubated for 72 hrs by MTT assay; assay type: functional, cell-based; conditions: MV4-11, 72 h
[6] = molecular target: Myc proto-oncogene protein (Homo sapiens) (UniProt P01106); experiment: Inhibition of MYC in human PC-3 cells assessed as downregulation of MYC expression at 1 uM incubated for 24 hrs by Western blotting analysis relative to control; assay type: cell-based
[7] = system: SGC-7901; experiment: Antiproliferative activity against human SGC-7901 cells assessed as inhibition of cell growth incubated for 72 hrs by MTT assay; assay type: functional, cell-based; conditions: SGC-7901, 72 h
[8] = system: A549; experiment: Antiproliferative activity against human A549 cells assessed as inhibition of cell growth incubated for 72 hrs by MTT assay; assay type: functional, cell-based; conditions: A549, 72 h
[9] = Cytotoxicity against human HUVEC cells assessed as inhibition of cell growth incubated for 72 hrs by MTT assay; assay type: toxicity, cell-based
[10] = molecular target: Myc proto-oncogene protein (Homo sapiens) (UniProt P01106); experiment: Inhibition of MYC in human PC-3 cells assessed as downregulation of MYC expression incubated for 24 hrs by Western blotting analysis; assay type: cell-based
[11] = system: HCT-116; experiment: Antiproliferative activity against human HCT-116 cells assessed as inhibition of cell growth incubated for 72 hrs by MTT assay; assay type: functional, cell-based; conditions: HCT-116, 72 h
[12] = Cytotoxicity against human GES1 cells assessed as inhibition of cell growth incubated for 72 hrs by MTT assay; assay type: toxicity, cell-based
[13] = system: HL-60; experiment: Antiproliferative activity against human HL-60 cells assessed as inhibition of cell growth incubated for 72 hrs by MTT assay; assay type: functional, cell-based; conditions: HL-60, 72 h
[14] = system: Myc-CaP; experiment: Antiproliferative activity against mouse Myc-CaP cells assessed as inhibition of cell growth incubated for 72 hrs by MTT assay; assay type: functional, cell-based
[15] = system: MDA-MB-231; experiment: Antiproliferative activity against human MDA-MB-231 cells assessed as inhibition of cell growth incubated for 72 hrs by MTT assay; assay type: functional, cell-based; conditions: MDA-MB-231, 72 h
[16] = system: SK-N-BE(2); experiment: Antiproliferative activity against human SK-N-BE(2) cells assessed as inhibition of cell growth incubated for 72 hrs by MTT assay; assay type: functional, cell-based; conditions: SKNBE2, 72 h
[17] = system: HepG2; experiment: Antiproliferative activity against human HepG2 cells assessed as inhibition of cell growth incubated for 72 hrs by MTT assay; assay type: functional, cell-based; conditions: HepG2, 72 h

Myc proto-oncogene protein (Homo sapiens), sequence (P01106 whole entry): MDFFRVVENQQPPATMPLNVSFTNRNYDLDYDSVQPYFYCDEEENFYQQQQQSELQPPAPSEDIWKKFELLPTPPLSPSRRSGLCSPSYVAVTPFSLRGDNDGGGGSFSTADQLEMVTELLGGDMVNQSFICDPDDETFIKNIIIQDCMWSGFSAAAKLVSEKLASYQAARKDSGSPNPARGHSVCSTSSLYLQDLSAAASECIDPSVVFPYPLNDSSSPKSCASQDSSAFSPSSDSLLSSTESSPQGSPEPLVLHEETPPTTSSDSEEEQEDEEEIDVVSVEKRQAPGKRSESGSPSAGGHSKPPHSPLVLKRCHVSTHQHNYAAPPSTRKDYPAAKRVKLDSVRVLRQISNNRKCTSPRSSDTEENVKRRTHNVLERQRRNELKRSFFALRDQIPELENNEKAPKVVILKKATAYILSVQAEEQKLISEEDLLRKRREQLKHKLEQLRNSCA
c-Myc/c-Max (Homo sapiens), sequence (P01106 whole entry): as above
c-Myc/c-Max (Homo sapiens), sequence (P61244 2-160 partner limits assumed): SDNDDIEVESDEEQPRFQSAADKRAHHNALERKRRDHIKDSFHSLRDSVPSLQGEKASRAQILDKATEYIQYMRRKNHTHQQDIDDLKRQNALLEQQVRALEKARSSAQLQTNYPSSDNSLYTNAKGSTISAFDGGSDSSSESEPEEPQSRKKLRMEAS

SMILES	IC50 [1] [µM]	other results
Oc1c(-c2cc(C(F)(F)F)n[nH]2)ccc(OCc2ccc(Cl)cc2)c1C#CCCCN1CCOCC1	9.89	
Oc1c(-c2cc(C(F)(F)F)n[nH]2)ccc(C#CCCN2CC3(COC3)C2)c1-c1ccc(Cl)c(C(F)(F)F)c1	2.8	
OCCCC#Cc1c(OCc2ccc(Cl)cc2)ccc(-c2cc(C(F)(F)F)n[nH]2)c1O	12.9	
CN1CCN(CCCC#Cc2c(OCc3ccc(Cl)cc3)ccc(-c3cc(C(F)(F)F)n[nH]3)c2O)CC1	8.43	
Oc1c(-c2cc(C(F)(F)F)n[nH]2)ccc(C#CCCN2CCN(C3COC3)CC2)c1-c1ccc(Cl)c(C(F)(F)F)c1	1.89	
CN(C)CC#Cc1c(OCc2ccc(Cl)cc2)ccc(-c2cc(C(F)(F)F)n[nH]2)c1O	> 100	
Oc1c(-c2cc(C(F)(F)F)n[nH]2)ccc(OCc2ccc(Cl)cc2)c1C#CCN1CCC(N2CCOCC2)CC1	> 100	
Oc1c(-c2cc(C(F)(F)F)n[nH]2)ccc(OCc2ccc(Cl)cc2)c1C#CCN1CCCCC1	44	
Oc1c(-c2cc(C(F)(F)F)n[nH]2)ccc(OCc2ccc(Cl)cc2)c1C#CCCN1CC2(COC2)C1	4.88	
Oc1c(-c2cc(C(F)(F)F)n[nH]2)ccc(OCc2ccc(Cl)cc2)c1C#CCN1CC2(COC2)C1	23.6	
CN1CCN(CC#Cc2ccc(-c3cc(C(F)(F)F)nn3C)c(O)c2-c2ccc(Cl)c(C(F)(F)F)c2)CC1	20.2	
Oc1c(-c2cc(C(F)(F)F)n[nH]2)ccc(C#CCN2CCOCC2)c1-c1ccc(Cl)c(C(F)(F)F)c1	2.02	
Cn1nc(C(F)(F)F)cc1-c1ccc(C#CCN2CCOCC2)c(-c2ccc(Cl)c(C(F)(F)F)c2)c1O	58.5	
Cn1nc(C(F)(F)F)cc1-c1ccc(OCc2ccc(Cl)cc2)c(C#CCN2CCOCC2)c1O	> 100	
Cn1nc(C(F)(F)F)cc1-c1ccc(OCc2ccc(Cl)cc2)c(C#CCCCO)c1O	> 100	
CC(C)(O)CCC#Cc1c(OCc2ccc(Cl)cc2)ccc(-c2cc(C(F)(F)F)n[nH]2)c1O	6.7	
Oc1c(-c2cc(C(F)(F)F)n[nH]2)ccc(C#CCCN2CCCCC2)c1-c1ccc(Cl)c(C(F)(F)F)c1	3.38	
OCCC#Cc1c(OCc2ccc(Cl)cc2)ccc(-c2cc(C(F)(F)F)n[nH]2)c1O	31	

SMILES	IC50 [1] [µM]	other results
CN1CCN(CC#Cc2c(OCc3ccc(Cl)cc3)ccc(-c3cc(C(F)(F)F)nn3C)c2O)CC1	16.6	
Oc1c(-c2cc(C(F)(F)F)n[nH]2)ccc(OCc2ccc(Cl)cc2)c1C#CCCN1CCOCC1	8.51	
Oc1c(-c2cc(C(F)(F)F)n[nH]2)ccc(OCc2ccc(Cl)cc2)c1C#CCCCN1CCCCC1	4.42	
Oc1c(-c2cc(C(F)(F)F)n[nH]2)ccc(OCc2ccc(Cl)cc2)c1C#CCN1CCOCC1	73.2	
Cn1nc(C(F)(F)F)cc1-c1ccc(C#CCCC(C)(C)O)c(-c2ccc(Cl)c(C(F)(F)F)c2)c1O	30.1	
CN1CCN(CC#Cc2ccc(-c3cc(C(F)(F)F)n[nH]3)c(O)c2-c2ccc(Cl)c(C(F)(F)F)c2)CC1	4.13	
CN1CCN(CC#Cc2c(OCc3ccc(Cl)cc3)ccc(-c3cc(C(F)(F)F)n[nH]3)c2O)CC1	6.89	
Oc1c(-c2cc(C(F)(F)F)n[nH]2)ccc(OCc2ccc(Cl)cc2)c1C#CCN1CCCC1	> 100	
CN1CCN(CCC#Cc2c(OCc3ccc(Cl)cc3)ccc(-c3cc(C(F)(F)F)n[nH]3)c2O)CC1	15.3	
Oc1c(-c2cc(C(F)(F)F)n[nH]2)ccc(OCc2ccc(Cl)cc2)c1C#CCN1CCN(C2COC2)CC1	8.24	
Cn1nc(C(F)(F)F)cc1-c1ccc(C#CCCCO)c(-c2ccc(Cl)c(C(F)(F)F)c2)c1O	65.5	
Oc1c(-c2cc(C(F)(F)F)n[nH]2)ccc(OCc2ccc(Cl)cc2)c1C#CCN1CCC(O)CC1	33.4	
Oc1c(-c2cc(C(F)(F)F)n[nH]2)ccc(OCc2ccc(Cl)cc2)c1C#CCCN1CCC(O)CC1	6.07	
Cn1nc(C(F)(F)F)cc1-c1ccc(OCc2ccc(Cl)cc2)c(-c2ccc(Cl)c(C(F)(F)F)c2)c1O	6.62	inhibition [2]: Active; IC50 [3]: 7.08 µM; IC50 [4]: 1.74 µM; IC50 [5]: 1.53 µM; inhibition [6]: 31%; IC50 [7]: 4.37 µM; IC50 [8]: 4.31 µM; IC50 at 72 h [9]: > 100 µM; inhibition [10]: Dose-Dependent Effect; IC50 [11]: 1.37 µM; IC50 at 72 h [12]: > 100 µM; IC50 [13]: 3.78 µM; IC50 [14]: 4.16 µM; IC50 [15]: 5.84 µM; IC50 [16]: 1.74 µM; IC50 [17]: 1.57 µM
Oc1c(-c2cc(C(F)(F)F)n[nH]2)ccc(OCc2ccc(Cl)cc2)c1C#CCCN1CCCCC1	3.65	
CN1CCN(CCC#Cc2ccc(-c3cc(C(F)(F)F)n[nH]3)c(O)c2-c2ccc(Cl)c(C(F)(F)F)c2)CC1	3.07	
CC(C)(O)CCC#Cc1ccc(-c2cc(C(F)(F)F)n[nH]2)c(O)c1-c1ccc(Cl)c(C(F)(F)F)c1	2.36	
